According to PubChem BioAssay AID328 (DTP/NCI, 2004):
“And” between values parts separate entries of the source, which are not always exact repeats. Identical values can stand only once. Toxic doses and inconclusive results are not listed.

Test system: BDF1 mice, P388 leukemia ip, median survival T/C
Assay: NCI In Vivo Anticancer Drug Screen. Data for tumor model P388 Leukemia (intraperitoneal) in B6D2F1 (BDF1) mice
Conditions: endpoint: median survival time, higher = longer survival
In short: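 Each value expresses how treatment altered survival: treated-mouse outcome over vehicle-mouse outcome, both groups bearing the transplanted tumour.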

[1] = dose: 100.0 mg/kg/injection, schedule: Q01DX009 (ip), vehicle: saline
[2] = dose: 10.0 mg/kg/injection, schedule: Q04DX003 (ip), vehicle: saline
[3] = dose: 100.0 mg/kg/injection, schedule: Q01DX009 (ip), vehicle: saline with Tween-80
[4] = dose: 200.0 mg/kg/injection, schedule: Q01DX009 (ip), vehicle: saline with Tween-80
[5] = dose: 400.0 mg/kg/injection, schedule: Q01DX009 (ip), vehicle: saline with Tween-80
[6] = dose: 50.0 mg/kg/injection, schedule: Q01DX009 (ip), vehicle: saline
[7] = dose: 200.0 mg/kg/injection, schedule: Q01DX009 (ip), vehicle: saline
[8] = dose: 15.0 mg/kg/injection, schedule: Q01DX009 (ip), vehicle: saline with Tween-80
[9] = dose: 30.0 mg/kg/injection, schedule: Q01DX009 (ip), vehicle: saline with Tween-80
[10] = dose: 50.0 mg/kg/injection, schedule: Q01DX009 (ip), vehicle: saline with Tween-80
[11] = dose: 25.0 mg/kg/injection, schedule: Q01DX009 (ip), vehicle: saline with Tween-80
[12] = dose: 200.0 mg/kg/injection, schedule: Q04DX003 (ip), vehicle: saline with Tween-80
[13] = dose: 400.0 mg/kg/injection, schedule: Q04DX003 (ip), vehicle: saline with Tween-80

With `C1CC[CH]([Sn]([CH]2CCCCC2)[CH]2CCCCC2)CC1` the T/C (dose: 0.78 mg/kg/injection, schedule: Q01DX009 (ip), vehicle: saline with Tween-80) was 98 % of control and the T/C (dose: 1.56 mg/kg/injection, schedule: Q01DX009 (ip), vehicle: saline with Tween-80) was 89 % of control.
With `c1csc(C[N+]23CN4CN(CN(C4)C2)C3)c1` the T/C [1] was 116 % of control.
For `CCOC(=O)C(N)Cc1ccc(N(CCCl)CCCl)cc1` (centres undefined), the T/C (dose: 4.0 mg/kg/injection, schedule: Q04DX003 (ip), vehicle: saline with Tween-80) was 240 % of control and 245 % of control, the T/C (dose: 6.0 mg/kg/injection, schedule: Q04DX003 (ip), vehicle: saline with Tween-80) was 272 % of control and the T/C (dose: 9.0 mg/kg/injection, schedule: Q04DX003 (ip), vehicle: saline with Tween-80) was 272 % of control and 95 % of control.
`C=CC(O)CN1CC1` (centres undefined) was tested, and the T/C [2] was 191 % of control.
In the case of `CC1(C)N=C(N)N=C(N)N1c1ccc(OCC(=O)N2CCOCC2)c(Cl)c1`, the T/C (dose: 66.0 mg/kg/injection, schedule: Q01DX009 (ip), vehicle: saline) was 107 % of control, the T/C (dose: 100.0 mg/kg/injection, schedule: Q01DX009 (ip), vehicle: saline sonified) was 172 % of control and the T/C [1] was 103 % of control. The T/C (dose: 150.0 mg/kg/injection, schedule: Q01DX009 (ip), vehicle: saline) was 111 % of control.
`c1ccc(-c2cc(-c3ccccc3)on2)cc1` was tested, and the T/C [3] was 95 % of control, the T/C [4] was 109 % of control and the T/C [5] was 104 % of control.
In the case of `CC(CCl)N(CCCl)Cc1cccc(Nc2ncnc3nc[nH]c23)c1` (centres undefined), the T/C (dose: 0.8 mg/kg/injection, schedule: Q01DX009 (ip), vehicle: saline) was 152 % of control, the T/C (dose: 1.5 mg/kg/injection, schedule: Q01DX009 (ip), vehicle: saline) was 154 % of control and the T/C (dose: 2.0 mg/kg/injection, schedule: Q01DX009 (ip), vehicle: saline) was 164 % of control. For the same molecule, the T/C (dose: 2.5 mg/kg/injection, schedule: Q01DX009 (ip), vehicle: saline) was 185 % of control, the T/C (dose: 3.0 mg/kg/injection, schedule: Q01DX009 (ip), vehicle: saline) was 160 % of control and the T/C (dose: 5.0 mg/kg/injection, schedule: Q01DX009 (ip), vehicle: saline) was 175 % of control. For the same molecule, the T/C (dose: 10.0 mg/kg/injection, schedule: Q01DX009 (ip), vehicle: saline) was 180 % of control and the T/C [2] was 86 % of control.
`O=c1[nH]cnc2ccnn12` was tested, and the T/C (dose: 25.0 mg/kg/injection, schedule: Q01DX009 (ip), vehicle: saline) was 103 % of control, the T/C [6] was 100 % of control and the T/C (dose: 75.0 mg/kg/injection, schedule: Q01DX009 (ip), vehicle: saline) was 101 % of control. For the same molecule, the T/C [1] was 100 % of control and the T/C [7] was 90 % of control.
With `O=c1c(Br)cccc(CN2CCOCC2)c1O` the T/C (dose: 12.5 mg/kg/injection, schedule: Q04DX002 (ip), vehicle: saline with Tween-80) was 101 % of control, the T/C (dose: 25.0 mg/kg/injection, schedule: Q04DX002 (ip), vehicle: saline with Tween-80) was 96 % of control and the T/C (dose: 50.0 mg/kg/injection, schedule: Q04DX002 (ip), vehicle: saline with Tween-80) was 101 % of control and 106 % of control.
In the case of `C=CC(=O)NCNC(=O)C=C`, the T/C (dose: 132.0 mg/kg/injection, schedule: Q04DX003 (ip), vehicle: saline with Tween-80) was 118 % of control and the T/C (dose: 300.0 mg/kg/injection, schedule: Q04DX003 (ip), vehicle: saline with Tween-80) was 222 % of control.
For `CCCCCCNC1=CC(=O)CC(C)(C)C1`, the T/C [6] was 105 % of control, the T/C [1] was 99 % of control and the T/C [7] was 107 % of control.
For `NC(CCC(=O)NNc1ccccc1)C(=O)O` (centres undefined), the T/C [8] was 96 % of control and the T/C [9] was 91 % of control.
In the case of `Nc1nc(N)nc(CCP(CCc2nc(N)nc(N)n2)CCc2nc(N)nc(N)n2)n1`, the T/C (dose: 50.0 mg/kg/injection, schedule: Q04DX003 (ip), vehicle: saline sonified) was 100 % of control, the T/C (dose: 100.0 mg/kg/injection, schedule: Q04DX003 (ip), vehicle: saline sonified) was 110 % of control and the T/C (dose: 200.0 mg/kg/injection, schedule: Q04DX003 (ip), vehicle: saline sonified) was 110 % of control.
In the case of `S=C1N(c2ccccc2)CN(C2CCCCC2)CN1c1ccccc1`, the T/C [10] was 89 % of control, the T/C [3] was 90 % of control and the T/C [4] was 89 % of control.
For `C1CCC2(CC1)OCCO2`, the T/C [11] was 87 % of control, the T/C [10] was 97 % of control and the T/C [3] was 100 % of control. For the same molecule, the T/C [4] was 106 % of control.
In the case of `CNc1ccc([N+](=O)[O-])c2no[n+]([O-])c12`, the T/C [8] was 90 % of control, the T/C [9] was 93 % of control and the T/C (dose: 60.0 mg/kg/injection, schedule: Q01DX009 (ip), vehicle: saline with Tween-80) was 102 % of control.
In the case of `CCCCCC[C@@H](O)C/C=C\CCCCCCCC(=O)OCCO`, the T/C (dose: 50.0 mg/kg/injection, schedule: Q01DX005 (ip), vehicle: saline) was 99 % of control, the T/C (dose: 100.0 mg/kg/injection, schedule: Q01DX005 (ip), vehicle: saline) was 107 % of control and the T/C (dose: 200.0 mg/kg/injection, schedule: Q01DX005 (ip), vehicle: saline) was 93 % of control. The T/C (dose: 400.0 mg/kg/injection, schedule: Q01DX005 (ip), vehicle: saline) was 105 % of control, the T/C (dose: 800.0 mg/kg/injection, schedule: Q01DX005 (ip), vehicle: saline) was 115 % of control and the T/C (dose: 1600.0 mg/kg/injection, schedule: Q01DX005 (ip), vehicle: saline) was 107 % of control.
In the case of `COC(=O)NC1C(C)C=CC(C)C1I` (centres undefined), the T/C [3] was 95 % of control, the T/C [4] was 113 % of control and the T/C [12] was 105 % of control. For the same molecule, the T/C [5] was 100 % of control and the T/C [13] was 110 % of control.
In the case of `CCCCCCCCCCCCS(=O)CC(C)O` (centres undefined), the T/C (dose: 100.0 mg/kg/injection, schedule: Q01DX009 (ip), vehicle: other) was 123 % of control.
With `CCCCCCCCCCC[N+](C)(C)CC(O)C[N+](C)(C)CCCCCCCCCCC` the T/C (dose: 3.13 mg/kg/injection, schedule: Q01DX009 (ip), vehicle: saline) was 102 % of control, the T/C (dose: 6.25 mg/kg/injection, schedule: Q01DX009 (ip), vehicle: saline) was 111 % of control and the T/C (dose: 12.5 mg/kg/injection, schedule: Q01DX009 (ip), vehicle: saline) was 118 % of control.
With `O=[N+]([O-])c1ccc([N+](=O)[O-])c(Cl)c1` the T/C (dose: 12.5 mg/kg/injection, schedule: Q04DX003 (ip), vehicle: saline with Tween-80) was 90 % of control, the T/C (dose: 25.0 mg/kg/injection, schedule: Q01DX009 (ip), vehicle: Klucel (hydroxypropylcellulose) (HPC)) was 100 % of control and the T/C (dose: 25.0 mg/kg/injection, schedule: Q04DX003 (ip), vehicle: saline with Tween-80) was 109 % of control. The T/C (dose: 50.0 mg/kg/injection, schedule: Q01DX009 (ip), vehicle: Klucel (hydroxypropylcellulose) (HPC)) was 109 % of control, the T/C (dose: 50.0 mg/kg/injection, schedule: Q04DX003 (ip), vehicle: saline with Tween-80) was 109 % of control and the T/C (dose: 100.0 mg/kg/injection, schedule: Q01DX009 (ip), vehicle: Klucel (hydroxypropylcellulose) (HPC)) was 118 % of control. The T/C (dose: 100.0 mg/kg/injection, schedule: Q04DX003 (ip), vehicle: Klucel (hydroxypropylcellulose) (HPC)) was 109 % of control and the T/C (dose: 150.0 mg/kg/injection, schedule: Q01DX009 (ip), vehicle: Klucel (hydroxypropylcellulose) (HPC)) was 118 % of control.
`N#C/C(=C\c1ccc(O)cc1)c1ccc([N+](=O)[O-])cc1` was tested, and the T/C (dose: 25.0 mg/kg/injection, schedule: Q01DX001 (ip), vehicle: saline) was 98 % of control, the T/C (dose: 50.0 mg/kg/injection, schedule: Q01DX001 (ip), vehicle: saline) was 100 % of control and the T/C (dose: 100.0 mg/kg/injection, schedule: Q01DX001 (ip), vehicle: saline with Tween-80) was 97 % of control. The T/C (dose: 100.0 mg/kg/injection, schedule: Q01DX001 (ip), vehicle: saline) was 96 % of control.
For `O=C1CCC(=O)N1CCC(=O)N(C(=O)NC1CCCCC1)C1CCCCC1`, the T/C (dose: 12.5 mg/kg/injection, schedule: Q01DX009 (ip), vehicle: saline with Tween-80) was 100 % of control, the T/C [11] was 101 % of control and the T/C [10] was 104 % of control and 111 % of control. For the same molecule, the T/C [3] was 101 % of control, the T/C (dose: 100.0 mg/kg/injection, schedule: Q04DX003 (ip), vehicle: saline with Tween-80) was 118 % of control and the T/C [4] was 100 % of control and 123 % of control. For the same molecule, the T/C [12] was 118 % of control, the T/C [5] was 111 % of control and the T/C [13] was 113 % of control.
In the case of `O=C1CCC(=O)C12CCNCC2`, the T/C (dose: 100.0 mg/kg/injection, schedule: Q04DX003 (ip), vehicle: saline) was 100 % of control, the T/C (dose: 200.0 mg/kg/injection, schedule: Q04DX003 (ip), vehicle: saline) was 100 % of control and the T/C (dose: 400.0 mg/kg/injection, schedule: Q04DX003 (ip), vehicle: saline) was 109 % of control.
